Source: the supplement of paper PMC10307832

Tests used:
Assay in all cases: relative viability (nuclei count vs DMSO), 5 days (fraction); higher = more cells survive
[1] = system: NCI-H2085
Outline: (§1)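 Values are medians from duplicate plates. Each reflects relative viability, defined as the nuclei count of treated wells over that of vehicle wells. Lung cancer cell lines in 1536-well plates were pin-tool dosed one day after seeding with one drug alone or with a fixed anchor-drug dose plus five library-drug doses (not always all listed) in √10 steps, then fixed, stained and imaged at 4× after 5 days.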

[2] = system: NCI-H647
Outline: as §1

[3] = system: NCI-H358
Outline: as §1

[4] = system: NCI-H2342
Outline: as §1

[5] = system: LXF-289
Outline: as §1

[6] = system: NCI-H1650
Outline: as §1

[7] = system: NCI-H322M
Outline: as §1

[8] = system: NCI-H727
Outline: as §1

[9] = system: NCI-H2023
Outline: as §1

[10] = system: SW 1573
Outline: as §1

[11] = system: NCI-H1915
Outline: as §1

[12] = system: NCI-H2347
Outline: as §1

[13] = system: NCI-H661
Outline: as §1

[14] = system: LCLC-97TM1
Outline: as §1

[15] = system: NCI-H2009
Outline: as §1

[16] = system: NCI-H1563
Outline: as §1

[17] = system: NCI-H2126
Outline: as §1

[18] = system: SK-LU-1
Outline: as §1

[19] = system: EMC-BAC-2
Outline: as §1

[20] = system: HOP-62
Outline: as §1

[21] = system: BEN
Outline: as §1

[22] = system: PC-14
Outline: as §1

[23] = system: NCI-H1993
Outline: as §1

[24] = system: H3255
Outline: as §1

For Clc1ccc(Nc2nnc(Cc3ccncc3)c3ccccc23)cc1 [Vatalanib] + Cc1nc(Nc2ncc(C(=O)Nc3c(C)cccc3Cl)s2)cc(N2CCN(CCO)CC2)n1 [Dasatinib] (partner 0.075 µM), the relative viability ([1]; first compound 0.04 µM) was 0.218, the relative viability ([1]; first compound 0.1265 µM) was 0.226 and the relative viability ([1]; first compound 0.4 µM) was 0.277. It also gave a relative viability ([1]; first compound 1.265 µM) of 0.188, a relative viability ([1]; first compound 4 µM) of 0.258 and a relative viability ([2]; first compound 0.04 µM) of 0.205. It also gave a relative viability ([2]; first compound 0.1265 µM) of 0.184, a relative viability ([2]; first compound 0.4 µM) of 0.212 and a relative viability ([2]; first compound 1.265 µM) of 0.191. It also gave a relative viability ([2]; first compound 4 µM) of 0.148, a relative viability ([3]; first compound 0.04 µM) of 0.164 and a relative viability ([3]; first compound 0.1265 µM) of 0.194. It also gave a relative viability ([3]; first compound 0.4 µM) of 0.165, a relative viability ([3]; first compound 1.265 µM) of 0.162 and a relative viability ([3]; first compound 4 µM) of 0.169. The relative viability ([4]; first compound 0.04 µM) was 0.292, the relative viability ([4]; first compound 0.1265 µM) was 0.324 and the relative viability ([4]; first compound 0.4 µM) was 0.278. For the same compound, the relative viability ([4]; first compound 1.265 µM) was 0.312, the relative viability ([4]; first compound 4 µM) was 0.295 and the relative viability ([5]; first compound 0.04 µM) was 0.233. It also gave a relative viability ([5]; first compound 0.1265 µM) of 0.269, a relative viability ([5]; first compound 0.4 µM) of 0.336 and a relative viability ([5]; first compound 1.265 µM) of 0.283. The relative viability ([5]; first compound 4 µM) was 0.204, the relative viability ([6]; first compound 0.04 µM) was 0.346 and the relative viability ([6]; first compound 0.1265 µM) was 0.275. The relative viability ([6]; first compound 0.4 µM) was 0.354, the relative viability ([6]; first compound 1.265 µM) was 0.217 and the relative viability ([6]; first compound 4 µM) was 0.289. It also gave a relative viability ([7]; first compound 0.04 µM) of 0.248, a relative viability ([7]; first compound 0.1265 µM) of 0.238 and a relative viability ([7]; first compound 0.4 µM) of 0.256. For the same compound, the relative viability ([7]; first compound 1.265 µM) was 0.247, the relative viability ([7]; first compound 4 µM) was 0.256 and the relative viability ([8]; first compound 0.04 µM) was 0.339. For the same compound, the relative viability ([8]; first compound 0.1265 µM) was 0.37, the relative viability ([8]; first compound 0.4 µM) was 0.326 and the relative viability ([8]; first compound 1.265 µM) was 0.41. It also gave a relative viability ([8]; first compound 4 µM) of 0.425, a relative viability ([9]; first compound 0.04 µM) of 0.671 and a relative viability ([9]; first compound 0.1265 µM) of 0.563. For the same compound, the relative viability ([9]; first compound 0.4 µM) was 0.653, the relative viability ([9]; first compound 1.265 µM) was 0.484 and the relative viability ([9]; first compound 4 µM) was 0.482. The relative viability ([10]; first compound 0.04 µM) was 0.73, the relative viability ([10]; first compound 0.1265 µM) was 0.496 and the relative viability ([10]; first compound 0.4 µM) was 0.645. For the same compound, the relative viability ([10]; first compound 1.265 µM) was 0.395, the relative viability ([10]; first compound 4 µM) was 0.476 and the relative viability ([11]; first compound 0.04 µM) was 0.322. The relative viability ([11]; first compound 0.1265 µM) was 0.321, the relative viability ([11]; first compound 0.4 µM) was 0.339 and the relative viability ([11]; first compound 1.265 µM) was 0.279. The relative viability ([11]; first compound 4 µM) was 0.349, the relative viability ([12]; first compound 0.04 µM) was 0.295 and the relative viability ([12]; first compound 0.1265 µM) was 0.352. It also gave a relative viability ([12]; first compound 0.4 µM) of 0.342, a relative viability ([12]; first compound 1.265 µM) of 0.28 and a relative viability ([12]; first compound 4 µM) of 0.385. For the same compound, the relative viability ([13]; first compound 0.04 µM) was 0.935, the relative viability ([13]; first compound 0.1265 µM) was 0.854 and the relative viability ([13]; first compound 0.4 µM) was 1.06. The relative viability ([13]; first compound 1.265 µM) was 0.853, the relative viability ([13]; first compound 4 µM) was 0.804 and the relative viability ([14]; first compound 0.04 µM) was 0.994. For the same compound, the relative viability ([14]; first compound 0.1265 µM) was 0.621, the relative viability ([14]; first compound 0.4 µM) was 0.839 and the relative viability ([14]; first compound 1.265 µM) was 0.775. It also gave a relative viability ([14]; first compound 4 µM) of 0.871, a relative viability ([15]; first compound 0.04 µM) of 0.288 and a relative viability ([15]; first compound 0.1265 µM) of 0.256. The relative viability ([15]; first compound 0.4 µM) was 0.35, the relative viability ([15]; first compound 1.265 µM) was 0.303 and the relative viability ([15]; first compound 4 µM) was 0.283. It also gave a relative viability ([16]; first compound 0.04 µM) of 0.45, a relative viability ([16]; first compound 0.1265 µM) of 0.479 and a relative viability ([16]; first compound 0.4 µM) of 0.428. The relative viability ([16]; first compound 1.265 µM) was 0.456, the relative viability ([16]; first compound 4 µM) was 0.346 and the relative viability ([17]; first compound 0.04 µM) was 0.609. For the same compound, the relative viability ([17]; first compound 0.1265 µM) was 0.571, the relative viability ([17]; first compound 0.4 µM) was 0.585 and the relative viability ([17]; first compound 1.265 µM) was 0.42. For the same compound, the relative viability ([17]; first compound 4 µM) was 0.503, the relative viability ([18]; first compound 0.04 µM) was 0.182 and the relative viability ([18]; first compound 0.1265 µM) was 0.188. It also gave a relative viability ([18]; first compound 0.4 µM) of 0.208, a relative viability ([18]; first compound 1.265 µM) of 0.184 and a relative viability ([18]; first compound 4 µM) of 0.178. It also gave a relative viability ([19]; first compound 0.04 µM) of 0.329, a relative viability ([19]; first compound 0.1265 µM) of 0.31 and a relative viability ([19]; first compound 0.4 µM) of 0.355. It also gave a relative viability ([19]; first compound 1.265 µM) of 0.306, a relative viability ([19]; first compound 4 µM) of 0.331 and a relative viability ([20]; first compound 0.04 µM) of 0.786. The relative viability ([20]; first compound 0.1265 µM) was 0.563, the relative viability ([20]; first compound 0.4 µM) was 0.712 and the relative viability ([20]; first compound 1.265 µM) was 0.635. The relative viability ([20]; first compound 4 µM) was 0.602, the relative viability ([21]; first compound 0.04 µM) was 0.308 and the relative viability ([21]; first compound 0.1265 µM) was 0.271. It also gave a relative viability ([21]; first compound 0.4 µM) of 0.315, a relative viability ([21]; first compound 1.265 µM) of 0.29 and a relative viability ([21]; first compound 4 µM) of 0.342. The relative viability ([22]; first compound 0.04 µM) was 0.318, the relative viability ([22]; first compound 0.1265 µM) was 0.248 and the relative viability ([22]; first compound 0.4 µM) was 0.34. For the same compound, the relative viability ([22]; first compound 1.265 µM) was 0.244, the relative viability ([22]; first compound 4 µM) was 0.245 and the relative viability ([23]; first compound 0.04 µM) was 0.727. The relative viability ([23]; first compound 0.1265 µM) was 0.651, the relative viability ([23]; first compound 0.4 µM) was 0.574 and the relative viability ([23]; first compound 1.265 µM) was 0.552. For the same compound, the relative viability ([23]; first compound 4 µM) was 0.578, the relative viability ([24]; first compound 0.04 µM) was 0.316 and the relative viability ([24]; first compound 0.1265 µM) was 0.385. The relative viability ([24]; first compound 0.4 µM) was 0.311, the relative viability ([24]; first compound 1.265 µM) was 0.28 and the relative viability ([24]; first compound 4 µM) was 0.335.
